# Key:
# [1] = test system: MelJuSo cells; assay: Cell cycle distribution analysis (PI, flow cytometry), MelJuSo; assay type: cell-based, human; conditions: 6 μM, 24 h
# Description: (§1) Cell cycle analysis in melanoma cells treated with GC2 was performed by determining DNA content using propidium iodide (PI) staining. PI intercalates into the major groove of double stranded DNA and produces a highly fluorescent adduct that can be excited at 488 nm and with a broad emission centered at 600 nm, see e.g. Krishan A. J. Cell. Biol. 66, 188, 1975. Melanoma cells (20×10^4) were cultured in 25 cm^2 tissue culture flasks for 24 h, followed by a further incubation for indicated time periods with 6 μM GC2. After treatment, adherent cells were trypsinized and a number of viable cells was determined by trypan blue exclusion. […] cells were re-suspended in 200 μl FACS buffer (2% FCS in PBS) and fixed with 600 μl absolute methanol, dropwise added under gentle vortexing, for at least 2 h at −20° C. Fixed cells were washed with FACS buffer, centrifuged for 5 min at 1500 rpm, at 4° C., and incubated for 30 min, in the dark, at room temperature (RT) with 200 μl PI staining solution in 3.8 mM sodium citrate (10 μl RNaze 10 μg/ml previously boiled for 5 min and 1 μl PI 10 mg/ml). The staining solution was removed by centrifugation and the cell pellet was re-suspended in 200 μl FACS buffer. Samples were analyzed for DNA content using a FACScan™ using CellQuest™ software (Becton Dickinson, San Jose, Calif.). […]
# [2] = test system: B16F10 cells; assay: Annexin V/PI double labeling, flow cytometry, B16F10; assay type: cell-based, murine; conditions: B16F10, 6 μM
# Description: Apoptosis in GC2-treated melanoma cells was detected using Annexin V and PI double labeling assay, see van Engeland, M., et al., Cytometry, 31, 1-9, 1998. Annexin V/PI labeling was applied to both fluorescence microscopy and flow cytometry following the protocol supplied by the manufacturer. Briefly, for fluorescence microscopy analysis adherent cells (approximately 16×10^4) treated with GC2 were washed with annexin V binding buffer, and incubated with Alexa Fluor® 488 Annexin V (5 μl in 1 ml annexin V binding buffer) for 15 min at RT, in the dark, to which 0.2 μg PI was added. Live cells were washed with annexin V binding buffer and examined by microscopy. For flow cytometric analysis, cells treated with GC2 were harvested by trypsinisation and a number of viable cells was counted. 16×10^4 cells were re-suspended in 0.2 ml annexin V binding buffer and treated in the same were adherent cells. Finally, labeled cells were analyzed with a FACScan™ using CellQuest™ software (Becton Dickinson, San Jose, Calif.).
# Cells cultured under normal conditions for 24 h were further treated for 5 h, 8 h or 24 h with 6 μM of GC2, labeled with annexin V and PI and quantitatively analyzed by flow cytometry for viable, apoptotic and necrotic populations (FIG. 7).
# [3] = test system: MMP-2 secreted by T11 glioblastoma multiform cells; assay: MMP analysis by SDS-PAGE gelatin zymography; assay type: cell-based; conditions: 20 h
# Description: T11 cells were grown in a complete DMEM medium until they reached 80% confluency. The cells were washed using DMEM medium without serum and incubated for 20 h with various concentrations of GC2 shown in preliminary experiments not to affect cell viability. The culture medium was collected, centrifuged at 2000 rpm, for 5 min, to remove the cells in suspension. The culture medium was further concentrated five times by ultrafiltration on centricon membranes (molecular weight cut off 30,000 from Milipore). Three parts of medium containing equal amounts of protein (20 μg) were mixed with one part of Laemmnli buffer without reducing agent. Samples were applied on a gel of 8% polyacrylamide impregnated with 0.5 mg/ml denaturated type I collagen (gelatin) and separated electrophoretically. […]
# To investigate if GC2 treatment interferes with secretion of MMPs a glioblastoma multiform cell line, T11 previously tested for its capacity to secrete MMP-2 was used. Cells were cultured for 20 h in the presence of different concentrations of GC2, established by preliminary experiments to be nontoxic for this cell line, and medium was concentrated and analyzed by Sodium Dodecyl Sulphate PolyAcrylamide Gel Electrophoresis (SDS-PAGE) gelatin zymography. […]
# [4] = test system: B16F10 cells; assay: Cell cycle distribution analysis (PI, flow cytometry), B16F10; assay type: cell-based, murine; conditions: B16F10, 6 μM, 24 h
# Description: as §1
compound,measurement,setting,value
"CC(=O)O.CCCCCCCCCN1[C@@H](CO)[C@@H](O)[C@H](O)[C@@H]1CCCCCCCC [GC2, (2S,3R,4R,5S)-3,4-dihydroxy-N-nonyl-5-octyl-2 hydroxymethylpyrrolidinium acetate]",number of cells in G2 phase,[1]; untreated 17.7%,8.48%
same,proportion of surviving cells in G0/G1 phase,[1]; untreated 51.20%,60.00%
same,"number of viable, apoptotic or necrotic cells",[2]; 5 h,did not change significantly
same,increase of apoptotic cells versus control (factor),[2]; 8 h,1.7
same,increase of necrotic fraction versus control,[2]; 8 h,approximately doubled
same,apoptotic cells,"[2]; 8 h, control 1.95%",3.44%
same,necrotic fraction,"[2]; 8 h, control 4.28%",8.78%
same,increase of apoptotic cells versus control (factor),[2]; 24 h,2.9
same,increase of necrotic fraction versus control (factor),[2]; 24 h,4.4
same,apoptotic cells,"[2]; 24 h, control 2.28%",6.72%
same,necrotic fraction,"[2]; 24 h, control 4.95%",22.16%
same,intensity of the MMP-2 band,"[3]; 0.65 μM, 1.25 μM, 2.5 μM and 5 μM",decreasing in a concentration dependent manner
same,MMP-2 secretion,[3]; 5 μM,total inhibition
same,number of cells in G2 phase,[4]; untreated 21.68%,16.96%
same,proportion of surviving cells in G0/G1 phase,[4]; untreated 45.42,53.74%
